Test results as given in PubChem BioAssay (NCI).
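Briefly, cells in 96-well plates were exposed to five compound concentrations for 48 h, and endpoints were estimated by linear interpolation. GI50 is the concentration that inhibits growth by half. TGI is the concentration that stops growth completely.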

Columns and labels:
Assay in all cases: DTP human tumour cell line panel, 48 h
[1] = system: NCI-H522 lung
[2] = system: SR leukemia
[3] = system: A549 NSCLC
[4] = system: OVCAR-8 ovarian
[5] = system: DU-145 prostate
[6] = system: HCT-15 colon
[7] = system: RPMI-8226 leukemia
[8] = system: HT29 colon
[9] = system: CCRF-CEM leukemia
[10] = system: NCI-H460 lung
[11] = system: MCF7 breast
[12] = system: SW-620 colon
[13] = system: IGROV1 ovarian
[14] = system: OVCAR-3 ovarian
[15] = system: HOP-92 NSCLC
[16] = system: UACC-257 melanoma
[17] = system: MDA-MB-231 breast
[18] = system: SK-MEL-28 melanoma
[19] = system: SF-268 CNS
[20] = system: UO-31 renal
[21] = system: EKVX NSCLC
[22] = system: NCI-H23 lung
[23] = system: COLO 205 colon
[24] = system: MOLT-4 leukemia
[25] = system: K-562 leukemia
[26] = system: M14 melanoma
[27] = system: HL-60(TB) leukemia
[28] = system: SK-OV-3 ovarian

For COC(=O)c1cccc(NC(=O)Nc2ccc3oc(=O)c4ccccc4c3c2)c1, the GI50 [1] was 4.91 µM, the TGI [1] was over 100 µM and the GI50 [2] was 37 µM. It also gave a TGI [2] of over 100 µM, a GI50 [3] of over 100 µM and a TGI [3] of over 100 µM. The GI50 [4] was over 100 µM, the TGI [4] was over 100 µM and the GI50 [5] was over 100 µM. The TGI [5] was over 100 µM, the GI50 [6] was over 100 µM and the TGI [6] was over 100 µM. The GI50 [7] was 24.5 µM, the TGI [7] was over 100 µM and the GI50 [8] was over 100 µM. The TGI [8] was over 100 µM, the GI50 [9] was 12.1 µM and the TGI [9] was 26.2 µM. It also gave a GI50 [10] of over 100 µM, a TGI [10] of over 100 µM and a GI50 [11] of over 100 µM. The TGI [11] was over 100 µM, the GI50 [12] was over 100 µM and the TGI [12] was over 100 µM. It also gave a GI50 [13] of over 100 µM, a TGI [13] of over 100 µM and a GI50 [14] of over 100 µM. The TGI [14] was over 100 µM, the GI50 [15] was over 100 µM and the TGI [15] was over 100 µM. It also gave a GI50 [16] of over 100 µM, a TGI [16] of over 100 µM and a GI50 [17] of 3.89 µM. For the same molecule, the TGI [17] was over 100 µM, the GI50 [18] was over 100 µM and the TGI [18] was over 100 µM. It also gave a GI50 [19] of 3.5 µM, a TGI [19] of over 100 µM and a GI50 [20] of over 100 µM. For the same molecule, the TGI [20] was over 100 µM, the GI50 [21] was over 100 µM and the TGI [21] was over 100 µM. The GI50 [22] was over 100 µM, the TGI [22] was over 100 µM and the GI50 [23] was over 100 µM. The TGI [23] was over 100 µM, the GI50 [24] was 36.2 µM and the TGI [24] was over 100 µM. For the same molecule, the GI50 [25] was over 100 µM, the TGI [25] was over 100 µM and the GI50 [26] was over 100 µM. It also gave a TGI [26] of over 100 µM, a GI50 [27] of 46.5 µM and a TGI [27] of over 100 µM. It also gave a GI50 [28] of over 100 µM and a TGI [28] of over 100 µM.
